Laboratory results from patent US7776875B2, “Spiroindolinone derivatives” (Hoffman-La Roche Inc., priority 2007, dated 2010).

The compounds below were run against recombinant GST-tagged MDM2 / p53-peptide interaction (Homo sapiens, UniProt Q00987) (assay: HTRF assay of inhibition of the p53-MDM2 interaction). Details: 0.02% BSA.
Sequence of recombinant GST-tagged MDM2 / p53-peptide interaction (Q00987 whole entry): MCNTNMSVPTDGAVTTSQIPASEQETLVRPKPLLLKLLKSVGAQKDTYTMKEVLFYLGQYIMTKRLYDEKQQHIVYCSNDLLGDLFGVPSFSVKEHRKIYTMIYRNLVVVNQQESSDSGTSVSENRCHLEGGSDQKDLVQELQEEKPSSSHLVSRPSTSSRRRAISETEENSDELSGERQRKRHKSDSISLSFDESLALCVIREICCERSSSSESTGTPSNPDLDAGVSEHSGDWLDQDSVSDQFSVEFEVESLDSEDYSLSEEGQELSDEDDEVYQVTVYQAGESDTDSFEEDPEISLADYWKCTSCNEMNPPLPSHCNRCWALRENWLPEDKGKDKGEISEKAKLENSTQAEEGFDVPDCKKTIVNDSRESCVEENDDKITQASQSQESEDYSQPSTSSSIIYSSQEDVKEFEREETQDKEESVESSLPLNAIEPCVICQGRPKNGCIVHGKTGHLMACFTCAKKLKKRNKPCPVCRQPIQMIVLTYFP
Assay type: binding
Procedure: The ability of the compounds to inhibit the interaction between p53 and MDM2 proteins was measured by an HTRF (homogeneous time-resolved fluorescence) assay in which recombinant GST-tagged MDM2 binds to a peptide that resembles the MDM2-interacting region of p53 (Lane et al.). Binding of GST-MDM2 protein and p53-peptide (biotinylated on its N-terminal end) is registered by the FRET (fluorescence resonance energy transfer) between Europium (Eu)-labeled anti-GST antibody and streptavidin-conjugated Allophycocyanin (APC).
[…] Add 10 uL diluted compounds (1:5 dilution in reaction buffer) to each well, mix by shaking. Add 20 uL biotinylated p53 peptide (180 nM working solution) in reaction buffer to each well and mix on shaker. Incubate at 37° C. for h. Add 20 uL streptavidin-APC and Eu-anti-GST antibody mixture (6 nM Eu-anti-GST and 60 nM streptavidin-APC working solution) in TBS buffer with 0.2% BSA, shake at room temperature for 30 minutes and read using a TRF-capable plate reader at 665 and 615 nm (Victor 5, Perkin ElmerWallac). If not specified, the reagents were purchased from Sigma Chemical Co.
Cc1ccc(F)cc1[C@@H]1NC(=O)C[C@H](c2cc(Cl)ccc2OC2(C(=O)NS(=O)(=O)c3ccc(F)cc3)CCC2)[C@@]12C(=O)Nc1cc(Cl)ccc12 (racemic) [Example 11, Racemic (2′S,3S,4′R)-6-chloro-4′-{5-chloro-2-[1-(4-fluoro-benzenesulfonylaminocarbonyl)-cyclobutoxy]-phenyl}-2′-(5-fluoro-2-methyl-phenyl)-spiro[3H-indole-3,3′-piperidine]-2,6′(1H)-dione] was tested, and the IC50 was 0.065 µM.
In the case of CN(C)C(=O)C(C)(C)Oc1ccc(Cl)cc1[C@H]1CC(=O)N[C@@H](c2cc(Cl)ccc2F)[C@]12C(=O)Nc1cc(Cl)ccc12 (racemic) [Example 34d, (2′R,3S,4′R)-6-chloro-4′-[5-chloro-2-(1-dimethylcarbamoyl-1-methyl-ethoxy)-phenyl]-2′-(2-fluoro-5chloro-phenyl)spiro[3H-indole-3,3′-piperidine]-2,6′(1H)-dione], the IC50 is reported as 0.155 µM.
Cc1ccc(F)cc1[C@@H]1NC(=O)C[C@H](c2cc(Cl)ccc2OC(C)(C)C(=O)NC2CCN(C)CC2)[C@@]12C(=O)Nc1cc(Cl)ccc12 (racemic) [Example 1g, Racemic (2′S,3S,4′R)-6-chloro-4′-{5-chloro-2-[1-methyl-1-(1-methyl-piperidin-4-ylcarbamoyl)-ethoxy]-phenyl}-2′-(5-fluoro-2-methyl-phenyl)spiro[3H-indole-3,3′-piperidine]-2,6′(1H)-dione] gave an IC50 of 0.278 µM.
Work on Cc1ccc(F)cc1[C@@H]1NC(=O)C[C@H](c2cc(Cl)ccc2OC(C)(C)C(=O)N2CCC(F)(F)CC2)[C@@]12C(=O)Nc1cc(Cl)ccc12 [Example 29b, (2′S,3S,4′R)-6-chloro-4′-{5-chloro-2-[2-(4,4-difluoro-piperidin-1-yl)-1,1-dimethyl-2-oxo-ethoxy]-phenyl}-2′-(5-fluoro-2-methyl-phenyl)spiro[3H-indole-3,3′-piperidine]-2,6′(1H)-dione] yielded an IC50 of 0.054 µM.
In the case of Cc1ccc(F)cc1[C@@H]1NC(=O)C[C@H](c2cc(Cl)ccc2OC(C)(C)C(=O)NCCN2CCCCC2)[C@@]12C(=O)Nc1cc(Cl)ccc12 (racemic) [Example 8, Racemic (2′S,3S,4′R)-6-chloro-4′-{5-chloro-2-[1-methyl-1-(2-piperidin-1-yl-ethylcarbamoyl)-ethoxy]-phenyl}-2′-(5-fluoro-2-methyl-phenyl)-spiro[3H-indole-3,3′-piperidine]-2,6′(1H)-dione], the IC50 is reported as 0.327 µM.
